How the values were obtained:
[1] = blood; tail vein; amount administered 1.4 mg/kg; mice with EAT cancer
Protocol: Ehrlich ascites tumor (EAT) cells (about 2×10^7 cells) were implanted subcutaneously into the right femoral region in male ddY mice (7 weeks of age), and the 50 mice were used in this test after the tumor tissues grew to 50 to 100 cubic mm (after 6 to 8 days).
These mice with cancer were separated into two groups, 25 mice per each group, and the mice in each group were injected with a liposome solution encapsulating having glycolipid type sugar chain and doxorubicin or free doxorubicin solution at a dose of 0.2 ml in tail vein after the tumor implant. Then, at various time intervals, the doxorubicin concentration was measured by fluorescent method (470 nm) in blood and tumor tissue of 5 mice from each group.

KG-1a cells = assay: Cytotoxicity of doxorubicin HCl incorporated in liposome, WST-8, human leukemia cells; format: cell-based; conditions: read-out: 50% growth inhibition concentration (IC50); KG-1a human leukemia cells, 72 hours
Protocol: (§1) KG-1a cells established from an acute myeloid leukemia patient were used as human leukemia cells. KG-1a cells were cultured in RPMI 1640 medium containing 10% fetal bovine serum (hereinafter FBS). MRC5 cells established from normal fibroblastic cells were used as normal human cells, and cultured in MEM medium containing 10% FBS. Cell suspensions were prepared from these cells at the concentration of 10^5 cells/ml and distributed to 96 well plates at 10^4 cells/well. After 24 hours, free doxorubicin HCl, which was not incorporated in liposome (hereinafter free Dox), doxorubicin HCl incorporated in liposome on which sugar was not bonded (hereinafter L-Dox) and doxorubicin HCl incorporated in liposome on which sialyl Lewis X tetrasaccharide was bonded (hereinafter L-Dox-SLX) were added to each well at appropriate concentrations. […] After removing the media containing the anticancer drug, replacing with 100 μl of RPMI 1640 or MEM containing 10% WST-8 and 10% FBS and incubating for 3 hours, the quantitation of cells were carried out by measuring absorbance at 485 nm (using the absorbance at 550 nm as a reference). Kiling activity (%)=100−(absorbance of the well of interest at 485 nm−absorbance of the same well at 550 nm)/(absorbance of the untreated well at 485 nm−absorbance of the untreated well at 550 nm)×100. […]

MRC5 cells = assay: Cytotoxicity of doxorubicin HCl incorporated in liposome, WST-8, normal human cells; format: cell-based; conditions: read-out: 50% growth inhibition concentration (IC50), 72 hours
Protocol: as §1

[2] = test system: Collagen type II induced arthritis (CIA) model; assay: Determination of suitable dose of predonisolone phosphate in RA (CIA) mice, intravenous; format: in vivo, DBA/1J mouse
[3] = test system: Collagen type II induced arthritis (CIA) model; assay: Treatment of RA (CIA) mice by intravenous administration; format: in vivo, DBA/1J mouse
[4] = test system: Collagen type II induced arthritis (CIA) model; assay: Treatment of RA (CIA) mice by oral administration; format: in vivo, DBA/1J mouse; conditions: oral 3 times a week, Day 28 to 39; free Pred 100 μg (up to Day 32), liposomes 10 μg per administration

Row | Structure (SMILES) | AUC0→∞ [1] [µg·h/mL] | IC50 (KG-1a cells) [µM] | IC50 (MRC5 cells) [µM] | Inflammatory Activity (IA) versus Control ([2]; iv 250 μg per injection, 500 μg per week) | Inflammatory Activity (IA) versus Control ([2]; iv 500 μg per injection, 1000 μg per week) | Dose required to suppress the progression of inflammation ([2]; iv, more than 500 up to 1000 μg/week) [μg/week] | Inflammatory Activity (IA) ([3]; Day 37 and afterward, iv 100 μg per injection, twice a week) | Inflammatory Activity (IA), comparison between groups ([3]; iv twice a week, free Pred 100 μg, liposomes 10 μg per injection) | Inflammatory Activity (IA), comparison between groups [4]
1 | COc1cccc2c1C(=O)c1c(O)c3c(c(O)c1C2=O)C[C@@](O)(C(=O)CO)C[C@@H]3O[C@H]1C[C@H](N)[C@H](O)[C@H](C)O1.Cl [free Dox, doxorubicin HCl] | 130 ± 10 | 0.18 | 8.4 |  |  |  |  |  | 
2 | C[C@]12C=CC(=O)C=C1CC[C@@H]1[C@@H]2[C@@H](O)C[C@@]2(C)[C@H]1CC[C@]2(O)C(=O)COP(=O)(O)O [free Pred, predonisolone phosphate] |  |  |  | No significant difference | no increase in IA was observed and the progression of inflammation was suppressed | > 500 | about 50% | no clear difference from the Control group in IA | no significant difference in IA

— patent publication US20070160657A1, “Targeting and intestinal-absorption controlled liposome having sugar chain and therapeutic drug for cancer and diagnostic drug containing the liposome” (National Institute of Advanced Industrial Science, priority 2003, published 2007)
